# Source: US8278345B2, “Inhibitors of glutaminyl cyclase” (Probiodrug AG, priority 2006, dated 2012)
# Like-named read-outs stand apart in the source and are kept apart here.
# Key:
# [1] = molecular target: hQC (Homo sapiens, UniProt Q16769); experiment: Inhibitor assay for glutaminyl cyclase activity (fluorometric, H-Gln-βNA / H-Gln-AMC); assay type: biochemical
# In short: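 Coupled fluorometric assay at 30 °C with pyroglutamyl aminopeptidase, in Tris/HCl pH 8.0 with EDTA, substrate H-Gln-βNA (0.2 mM; ex/em 320/410 nm) or H-Gln-AMC (ex/em 380/460 nm), initiated by QC. Screening: 4 mM inhibitor, substrate at 1 KM; Ki from progress curves fitted to competitive inhibition.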
# [2] = compound from preparative synthesis, purified, read-out: IC50 hQC
# Sequence of hQC (Q16769 29-361): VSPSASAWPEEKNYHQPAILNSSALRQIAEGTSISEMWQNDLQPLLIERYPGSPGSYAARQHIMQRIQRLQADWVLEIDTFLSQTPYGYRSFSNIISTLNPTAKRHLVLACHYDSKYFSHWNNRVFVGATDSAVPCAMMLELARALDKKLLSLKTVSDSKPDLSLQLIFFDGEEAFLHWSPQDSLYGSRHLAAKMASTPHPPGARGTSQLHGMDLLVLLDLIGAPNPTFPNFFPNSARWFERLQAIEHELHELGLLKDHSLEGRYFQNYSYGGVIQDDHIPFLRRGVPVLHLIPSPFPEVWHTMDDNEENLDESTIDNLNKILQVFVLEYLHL
melting point,"IC50 [1, 2]",IC50 ([1]; read-out: IC50),SMILES
170 °C,11.4 nM,4 nM,"O=C(C1=C(O)C(=O)N(c2ccc3[nH]cnc3c2)C1c1ccc2nonc2c1)C1CC1 (centres unmarked) [Compound 440, 1-(1H-Benzoimidazol-5-yl)-5-benzo[c][1,2,5]oxadiazol-5-yl-4-cyclopropanecarbonyl-3-hydroxy-1,5-dihydro-pyrrol-2-one]"
174 °C,5.8 nM,4 nM,"CC(=O)C1=C(O)C(=O)N(c2ccc3[nH]cnc3c2)C1c1ccc2cccc(O)c2n1 (centres unmarked) [Compound 277, 4-Acetyl-1-(1H-benzoimidazol-5-yl)-3-hydroxy-5-(8-hydroxy-quinolin-2-yl)-1,5-dihydro-pyrrol-2-one]"
195 °C,118 nM,4 nM,"CC(=O)C1=C(O)C(=O)N(c2ccc3[nH]cnc3c2)C1c1cc(Br)ccc1F (centres unmarked) [Compound 437, 4-Acetyl-1-(1H-benzoimidazol-5-yl)-5-(5-bromo-2-fluoro-phenyl)-3-hydroxy-1,5-dihydro-pyrrol-2-one]"
108 °C,32 nM,4 nM,"O=C1C(O)=C(c2ccccc2)C(c2cnc3ccccc3c2)N1c1ccc2[nH]cnc2c1 (centres unmarked) [Compound 420, 1-(1H-Benzoimidazol-5-yl)-3-hydroxy-4-phenyl-5-quinolin-3-yl-1,5-dihydro-pyrrol-2-one]"
,,400 nM,"CCCCCC1=C(O)C(=O)N(CCCn2ccnc2)C1Cc1ccccc1 (centres unmarked) [Compound 206, 5-Benzyl-3-hydroxy-1-(3-imidazol-1-yl-propyl)-4-pentyl-1,5-dihydro-pyrrol-2-one]"
,,1750 nM,"CC(=O)C1=C(O)C(=O)N(c2ccc3[nH]cnc3c2)C1c1ccnc2ccccc12 (centres unmarked) [Compound 318, 4-Acetyl-1-(1H-benzoimidazol-5-yl)-3-hydroxy-5-quinolin-4-yl-1,5-dihydro-pyrrol-2-one]"
,,1300 nM,"O=C1C(O)=C(c2c[nH]c3ccccc23)C(C(F)(F)F)N1CCCn1ccnc1 (centres unmarked) [Compound 131, 3-Hydroxy-1-(3-imidazol-1-yl-propyl)-4-(1H-indol-3-yl)-5-trifluoromethyl-1,5-dihydro-pyrrol-2-one]"
,,400 nM,"CCC1=C(O)C(=O)N(CCCn2ccnc2)C1c1ccc(C)cc1 (centres unmarked) [Compound 221, 4-Ethyl-3-hydroxy-1-(3-imidazol-1-yl-propyl)-5-p-tolyl-1,5-dihydro-pyrrol-2-one]"
,,4000 nM,"CCCCCC(=O)C1=C(O)C(=O)N(c2ccc3[nH]cnc3c2)C1CC (centres unmarked) [Compound 463, 1-(1H-Benzoimidazol-5-yl)-5-ethyl-4-hexanoyl-3-hydroxy-1,5-dihydro-pyrrol-2-one]"
,,40 nM,"CCCCCC1=C(O)C(=O)N(CCCn2ccnc2)C1CCCCC (centres unmarked) [Compound 196, 3-Hydroxy-1-(3-imidazol-1-yl-propyl)-4,5-dipentyl-1,5-dihydro-pyrrol-2-one]"
,,400 nM,"O=C1C(O)=C(c2ccc(O)cc2)C(c2ccc(CO)o2)N1CCCn1ccnc1 (centres unmarked) [Compound 161, 3-Hydroxy-5-(5-hydroxymethyl-furan-2-yl)-4-(4-hydroxy-phenyl)-1-(3-imidazol-1-yl-propyl)-1,5-dihydro-pyrrol-2-one]"
,,40 nM,"CCCCCC1C(c2ccc(O)cc2)=C(O)C(=O)N1CCCn1ccnc1 (centres unmarked) [Compound 159, 3-Hydroxy-4-(4-hydroxy-phenyl)-1-(3-imidazol-1-yl-propyl)-5-pentyl-1,5-dihydro-pyrrol-2-one]"
,,400 nM,"O=C(C1=C(O)C(=O)N(c2ccc3[nH]cnc3c2)C1c1ccc(CO)o1)C1CCCCC1 (centres unmarked) [Compound 303, 1-(1H-Benzoimidazol-5-yl)-4-cyclohexanecarbonyl-3-hydroxy-5-(5-hydroxymethyl-furan-2-yl)-1,5-dihydro-pyrrol-2-one]"
,,220 nM,"O=C(O)c1ccc(C2C(c3ccc(O)cc3)=C(O)C(=O)N2c2ccc3[nH]cnc3c2)o1 (centres unmarked) [Compound 389, 5-[1-(1H-Benzoimidazol-5-yl)-4-hydroxy-3-(4-hydroxy-phenyl)-5-oxo-2,5-dihydro-1H-pyrrol-2-yl]-furan-2-carboxylic acid]"
,,400 nM,"CCCCCC1C(c2cccc(O)c2)=C(O)C(=O)N1CCCn1ccnc1 (centres unmarked) [Compound 16, 3-Hydroxy-4-(3-hydroxy-phenyl)-1-(3-imidazol-1-yl-propyl)-5-pentyl-1,5-dihydro-pyrrol-2-one]"
,,3820 nM,"CCC1=C(O)C(=O)N(c2ccc3[nH]cnc3c2)C1c1c(F)ccc(Cl)c1F (centres unmarked) [Compound 290, 1-(1H-Benzoimidazol-5-yl)-5-(3-chloro-2,6-difluoro-phenyl)-4-ethyl-3-hydroxy-1,5-dihydro-pyrrol-2-one]"
,,2650 nM,"CCCC(=O)C1=C(O)C(=O)N(c2ccc3[nH]cnc3c2)C1c1ccc(CO)o1 (centres unmarked) [Compound 432, 1-(1H-Benzoimidazol-5-yl)-4-butyryl-3-hydroxy-5-(5-hydroxymethyl-furan-2-yl)-1,5-dihydro-pyrrol-2-one]"
,,40 nM,"CCCCCC1C(CC)=C(O)C(=O)N1CCCn1ccnc1 (centres unmarked) [Compound 232, 4-Ethyl-3-hydroxy-1-(3-imidazol-1-yl-propyl)-5-pentyl-1,5-dihydro-pyrrol-2-one]"

melting point,"IC50 [1, 2]",IC50 ([1]; read-out: IC50),SMILES
,,6250 nM,"Cn1cc(C2C(c3c[nH]c4ccccc34)=C(O)C(=O)N2c2ccc3[nH]cnc3c2)c2ccccc21 (centres unmarked) [Compound 329, 1-(1H-Benzoimidazol-5-yl)-3-hydroxy-4-(1H-indol-3-yl)-5-(1-methyl-1H-indol-3-yl)-1,5-dihydro-pyrrol-2-one]"
,,400 nM,"CC1C(c2c[nH]c3ccccc23)=C(O)C(=O)N1CCCn1ccnc1 (centres unmarked) [Compound 125, 3-Hydroxy-1-(3-imidazol-1-yl-propyl)-4-(1H-indol-3-yl)-5-methyl-1,5-dihydro-pyrrol-2-one]"
,,2200 nM,"CCC1=C(O)C(=O)N(CCCn2ccnc2)C1C (centres unmarked) [Compound 233, 4-Ethyl-3-hydroxy-1-(3-imidazol-1-yl-propyl)-5-methyl-1,5-dihydro-pyrrol-2-one]"
,,4000 nM,"Cc1ccc2occ(C3C(C(=O)C(C)(C)C)=C(O)C(=O)N3c3ccc4[nH]cnc4c3)c(=O)c2c1 (centres unmarked) [Compound 382, 1-(1H-Benzoimidazol-5-yl)-4-(2,2-dimethyl-propionyl)-3-hydroxy-5-(6-methyl-4-oxo-4H-chromen-3-yl)-1,5-dihydro-pyrrol-2-one]"
,,5350 nM,"CC(C)CC(=O)C1=C(O)C(=O)N(c2ccc3[nH]cnc3c2)C1c1cn(C)c2ccccc12 (centres unmarked) [Compound 278, 1-(1H-Benzoimidazol-5-yl)-3-hydroxy-4-(3-methyl-butyryl)-5-(1-methyl-1H-indol-3-yl)-1,5-dihydro-pyrrol-2-one]"
,,2200 nM,"O=C1C(O)=C(c2cccc(O)c2)C(c2cc(Cl)cc(Cl)c2O)N1CCCn1ccnc1 (centres unmarked) [Compound 4, 5-(3,5-Dichloro-2-hydroxy-phenyl)-3-hydroxy-4-(3-hydroxy-phenyl)-1-(3-imidazol-1-yl-propyl)-1,5-dihydro-pyrrol-2-one]"
,,1570 nM,"CC(=O)C1=C(O)C(=O)N(c2ccc3[nH]cnc3c2)C1c1ccc(N2CCCC2)cc1 (centres unmarked) [Compound 345, 4-Acetyl-1-(1H-benzoimidazol-5-yl)-3-hydroxy-5-(4-pyrrolidin-1-yl-phenyl)-1,5-dihydro-pyrrol-2-one]"
,,1930 nM,"CC1=C(O)C(=O)N(c2ccc3[nH]cnc3c2)C1c1ccccc1F (centres unmarked) [Compound 386, 1-(1H-Benzoimidazol-5-yl)-5-(2-fluoro-phenyl)-3-hydroxy-4-methyl-1,5-dihydro-pyrrol-2-one]"
,,1300 nM,"CC1=C(O)C(=O)N(CCCn2ccnc2)C1c1ccccc1F (centres unmarked) [Compound 51, 5-(2-Fluoro-phenyl)-3-hydroxy-1-(3-imidazol-1-yl-propyl)-4-methyl-1,5-dihydro-pyrrol-2-one]"
,,940 nM,"CCCCCC1=C(O)C(=O)N(c2ccc3[nH]cnc3c2)C1c1ccccc1F (centres unmarked) [Compound 325, 1-(1H-Benzoimidazol-5-yl)-5-(2-fluoro-phenyl)-3-hydroxy-4-pentyl-1,5-dihydro-pyrrol-2-one]"
,,1300 nM,"CC1=C(O)C(=O)N(CCCn2ccnc2)C1c1ccc(O)cc1 (centres unmarked) [Compound 52, 3-Hydroxy-5-(4-hydroxy-phenyl)-1-(3-imidazol-1-yl-propyl)-4-methyl-1,5-dihydro-pyrrol-2-one]"
,,2200 nM,"CCCC1C(CC)=C(O)C(=O)N1CCCn1ccnc1 (centres unmarked) [Compound 223, 4-Ethyl-3-hydroxy-1-(3-imidazol-1-yl-propyl)-5-propyl-1,5-dihydro-pyrrol-2-one]"
,,400 nM,"O=C1C(O)=C(c2ccccc2)C(c2cccc(Cl)c2)N1CCCn1ccnc1 (centres unmarked) [Compound 109, 5-(3-Chloro-phenyl)-3-hydroxy-1-(3-imidazol-1-yl-propyl)-4-phenyl-1,5-dihydro-pyrrol-2-one]"
,,2560 nM,"CCCCCC(=O)C1=C(O)C(=O)N(c2ccc3[nH]cnc3c2)C1c1ccc(C)o1 (centres unmarked) [Compound 258, 1-(1H-Benzoimidazol-5-yl)-4-hexanoyl-3-hydroxy-5-(5-methyl-furan-2-yl)-1,5-dihydro-pyrrol-2-one]"
,,2200 nM,"CC(C)C1=C(O)C(=O)N(CCCn2ccnc2)C1c1cc[nH]n1 (centres unmarked) [Compound 56, 3-Hydroxy-1-(3-imidazol-1-yl-propyl)-4-isopropyl-5-(1H-pyrazol-3-yl)-1,5-dihydro-pyrrol-2-one]"
,,220 nM,"O=C1C(O)=C(c2cccc(O)c2)C(c2ccc3cccc(O)c3n2)N1c1ccc2[nH]cnc2c1 (centres unmarked) [Compound 304, 1-(1H-Benzoimidazol-5-yl)-3-hydroxy-4-(3-hydroxy-phenyl)-5-(8-hydroxy-quinolin-2-yl)-1,5-dihydro-pyrrol-2-one]"
,,4720 nM,"O=C1C(O)=C(c2c[nH]c3ccccc23)C(c2coc3ccccc3c2=O)N1c1ccc2[nH]cnc2c1 (centres unmarked) [Compound 357, 1-(1H-Benzoimidazol-5-yl)-3-hydroxy-4-(1H-indol-3-yl)-5-(4-oxo-4H-chromen-3-yl)-1,5-dihydro-pyrrol-2-one]"
,,4900 nM,"CC(C)C1=C(O)C(=O)N(CCCn2ccnc2)C1c1ccccn1 (centres unmarked) [Compound 69, 3-Hydroxy-1-(3-imidazol-1-yl-propyl)-4-isopropyl-5-pyridin-2-yl-1,5-dihydro-pyrrol-2-one]"
